The experiment relates to human ILC2s. Briefly: In vitro culture of human ILC2s, IL-5 and IL-13 production. Type of experiment: cell-based. The conditions noted are these: agonist 10 μg mL−1; rh-IL-2, rh-IL-7, rh-IL-33; 24h. The procedure: FIGS. 7A-7E: α7nAChR agonist prevents human ILC2s mediated AHR and allergic. (FIG. 7A) Human ILC2s were purified from PBMCs via FACS and cultured (10^4 cells per mL) in the presence of recombinant human IL-33 (20 ng mL^−1), IL-2 (10 ng mL^−1), and IL-7 (20 ng mL^−1), with or without α7nAChR agonist for 24h. In the right panel, data are presented as means of four individual donors. (FIG. 7B) Human peripheral-blood mononuclear cells were isolated via FACS and cultured in the presence or absence of rh-IL-2 (10 ng mL^−1) and rh-IL-7 (20 ng mL^−1) for 48 hours, then adoptively transferred into Rag2^−/− GC^−/− mice that were intranasally challenged with rm-IL-33 or PBS, with or without α7nAChR agonist (125 μg) on days 1-3. […]
For human peripheral ILC2s, peripheral blood mononuclear cells (PBMCs) were first isolated from human fresh blood by diluting the blood 1:1 in PBS, adding to SepMate™-50 separation tubes (STEMCELL Technologies Inc, Vancouver, Canada) prefilled with 15-mL Lymphoprep™ each (Axis-Shield, Oslo, Norway), and centrifuging at 1200 g for 15 minutes. […] On day 4, lung function was measured and BAL was performed and analyzed.
Murine ILC2s were isolated from BALB/cByJ mice to >95% purity using the FACSARIA III cell sorter. […] Levels of cytokines were measured by ELISA (eBioscience), according to the manufacturer's instructions.

We go through 1 molecule from patent publication US20190247376A1, “NICOTINIC ACETYLCHOLINE RECEPTOR AGONIST ATTENUATES ILC2-DEPENDENT AIRWAY HYPERREACTIVITY” (University of Southern California, priority 2016, published 2019).

Each structure is given as a SMILES string.

With `COc1ccc(/C=C2\CCCN=C2c2cccnc2)c(OC)c1` [GTS-21, 3-[(3E)-3-[(2,4-dimethoxyphenyl)methylidene]-5,6-dihydro-4H-pyridin-2-yl]pyridine], the “IL-5 production by human ILC2s” value was “decreasing” and the “IL-13 production by human ILC2s” value was “decreasing”.
